{
  "source": "patent EP4755400A1",
  "about": "“ANTIBODY-DRUG CONJUGATE CONTAINING GLYCOSYLPYRIDINE LINKER” (Novocodex Biopharmaceuticals Co., Ltd., priority 2023, dated 2025)",
  "origin": "cited, not measured here",
  "tested_on": "human carcinoma lines",
  "data": [
    {"molecule": "COc1cccc2c1C(=O)c1c(O)c3c(c(O)c1C2=O)C[C@@](O)(C(=O)CO)C[C@@H]3O[C@H]1C[C@H](N)[C@H](O)[C@H](C)O1", "note": "[doxorubicin]", "values": [
      {"measurement": "IC50", "value": "100 to 200", "unit": "nM"}
    ]}
  ]
}
